From patent publication US20170022159A1, “HETEROCYCLIC AMPHOTERIC COMPOUNDS” (Eastman Chemical Company, priority 2014, published 2017)
Like-named read-outs stand apart in the source and are kept apart here.

What was measured:
[1] = Fluorimetric determination of critical micelle concentration (DPH dye); type: physicochemical
Description: The critical micelle concentration (CMC) was also determined for each compound. The CMC is the concentration of surfactant above which micelles spontaneously form. CMC is an important characteristic of a surfactant. At surfactant concentrations below the CMC, surface tension varies widely with surfactant concentration. At concentrations above the CMC, surface tension remains fairly constant. A lower CMC indicates less surfactant is needed to saturate interfaces and form micelles. Typical CMC values are less than 1 weight percent (10,000 ppm).
The fluorimetric determination of CMC described by Chattopadhyay and London (Analytical Biochemistry, Vol. 139, pp. 408-412 (1984)) was used to obtain the critical micelle concentrations found in Table 3 below. This method employs the fluorescent dye 1,6-diphenyl-1,3,5-hexatriene (DPH) in a solution of the surface-active agent. The analysis is based on differences in fluorescence upon incorporation of the dye into the interior of the micelles. As the solution exceeds CMC, a large increase in fluorescence intensity is observed.

[2] = Foaming Properties of Surface-Active Agents (ASTM 1173-07), foam height; type: physicochemical
From the text: The Standard Test Method for Foaming Properties of Surface-Active Agents (ASTM 1173-07) was used to determine the foaming properties of the heterocyclic amphoteric compounds of the formula 1 described herein. This method generates foam under low-agitation conditions and is generally used for moderate- and high-foam surfactants. This test gathers data on initial foam height and foam decay. Foam decay provides information on foam stability.
The apparatus for carrying out this test includes a jacketed column and a pipet. The jacketed column serves as a receiver, while the pipet delivers the surface-active solution. Solutions of each surface-active agent were prepared. The solution of the heterocyclic amphoteric compound to be tested was added to the receiver (50 mL) and to the pipet (200 mL). The pipet was positioned above the receiver and opened. As the solution fell and made contact with the solution in the receiver, foam was generated. When the pipet was empty, the time was noted and an initial foam height was recorded. The foam height was recorded each minute for five minutes. Exact size specifications for the glassware can be found in ASTM 1173-07. The foam height results for each heterocyclic amphoteric compound 1 and representative standards are listed below in Tables 1 (0.1% concentration) and 2 (1% concentration).

[3] = for Percent amphoteric remaining: buffer
Description: The resulting mixture was placed in a 50° C. oven. Samples were taken periodically and analyzed for the amount of (4-lauroyloxy-1-methylpiperidinium-1-yl)acetate remaining by quantitative HPLC.

[4] = 1 g/L (0.1 weight %), t = 0 min
[5] = 1 g/L (0.1 weight %), t = 1 min
[6] = 1 g/L (0.1 weight %), t = 2 min
[7] = 1 g/L (0.1 weight %), t = 3 min
[8] = 1 g/L (0.1 weight %), t = 4 min
[9] = 1 g/L (0.1 weight %), t = 5 min
[10] = 10 g/L (1.0 weight %), t = 0 min
[11] = 10 g/L (1.0 weight %), t = 1 min
[12] = 10 g/L (1.0 weight %), t = 2 min
[13] = 10 g/L (1.0 weight %), t = 3 min
[14] = 10 g/L (1.0 weight %), t = 4 min
[15] = 10 g/L (1.0 weight %), t = 5 min

Row | Molecule | CMC [1] | CMC (ppm) [1] | Foam height (cm) at time t (min) [2, 4] | Foam height (cm) at time t (min) [2, 5] | Foam height (cm) at time t (min) [2, 6] | Foam height (cm) at time t (min) [2, 7] | Foam height (cm) at time t (min) [2, 8] | Foam height (cm) at time t (min) [2, 9] | Foam height (cm) at time t (min) [2, 10] | Foam height (cm) at time t (min) [2, 11] | Foam height (cm) at time t (min) [2, 12] | Foam height (cm) at time t (min) [2, 13] | Foam height (cm) at time t (min) [2, 14] | Foam height (cm) at time t (min) [2, 15] | other results
1 | CCCCCCCCCCCCOS(=O)(=O)[O-].[Na+] [sodium lauryl sulfate, reference compound] | 8.27 mM | 2386 ppm | – | – | – | – | – | – | – | – | – | – | – | – | –
2 | (4-lauramido-1-methylpiperidinium-1-yl)acetate [Example 17] | 1.54 mM | 566.5 ppm | – | – | – | – | – | – | – | – | – | – | – | – | –
3 | CCCCCCCCCCCC(=O)OC1CC[N+](C)(CC(=O)[O-])CC1 (centres unmarked) [Example 9, (4-lauroyloxy-1-methylpiperidinium-1-yl)acetate] | – | – | 17.0 cm | 17.0 cm | 16.5 cm | 16.5 cm | 16.0 cm | 16.0 cm | 16.5 cm | 16.0 cm | 16.0 cm | 15.5 cm | 15.5 cm | 15.5 cm | Percent amphoteric remaining ([3]; 0 h, pH 4.5): 100%; Percent amphoteric remaining ([3]; 336 h, pH 4.5): 98%; Percent amphoteric remaining ([3]; 1008 h, pH 4.5): 96%; Percent amphoteric remaining ([3]; 1344 h, pH 4.5): 85%; Loss of compound (in words) ([3]; extended incubation in pH 4.5 water at 50° C.): limited loss
4 | CCCCCCCCCCCC(=O)OCC1CCC[N+](C)(CC(=O)[O-])C1 (centres unmarked) [Example 11, (3-lauroyloxymethyl-1-methylpiperidinium-1-yl)acetate] | 0.248 mM | 95.0 ppm | 18.5 cm | 17.5 cm | 17.5 cm | 17.0 cm | 16.5 cm | 16.0 cm | 19.0 cm | 18.0 cm | 18.0 cm | 17.5 cm | 17.5 cm | 17.5 cm | –
5 | CCCCCCCCCCCCOS(=O)(=O)O.N [ammonium lauryl sulfate, reference compound] | 1.38 mM | 392 ppm | – | – | – | – | – | – | – | – | – | – | – | – | –
6 | (3-cocoyloxymethyl-1-methylpiperidinium-1-yl)acetate [Example 5] | 0.062 mM | 23.7 ppm | 16.5 cm | 16.0 cm | 15.5 cm | 15.5 cm | 15.0 cm | 15.0 cm | 18.0 cm | 17.5 cm | 17.0 cm | 17.0 cm | 17.0 cm | 16.5 cm | –
7 | (4-cocoyloxy-1-methylpiperidinium-1-yl)acetate [Example 3] | 0.062 mM | 22.9 ppm | 16.5 cm | 16.0 cm | 15.5 cm | 15.5 cm | 15.5 cm | 15.5 cm | 18.5 cm | 18.0 cm | 17.5 cm | 17.0 cm | 17.0 cm | 17.0 cm | –
8 | (4-cocoyloxymethyl-1-methylpiperidinium-1yl)acetate [Example 7] | 0.050 mM | 19.2 ppm | 16.0 cm | 14.5 cm | 12.5 cm | 9.0 cm | 6.0 cm | 4.0 cm | 18.0 cm | 17.0 cm | 17.0 cm | 17.0 cm | 16.5 cm | 16.5 cm | –
9 | cocamidopropyl betaine [reference compound] | 0.069 mM | 24.5 ppm | 17.0 cm | 16.0 cm | 16.0 cm | 16.0 cm | – | 15.5 cm | 17.5 cm | 16.5 cm | – | 16.0 cm | 16.0 cm | 16.0 cm | –
10 | 3-(cocoyloxypropyldimethylammonio)acetate [Comparative Example 2, reference compound] | – | – | – | – | – | – | – | – | – | – | – | – | – | – | Percent amphoteric remaining ([3]; 0 h, pH 5): 100%; Percent amphoteric remaining ([3]; 336 h, pH 5): 74%; Percent amphoteric remaining ([3]; 1344 h, pH 5): 73%; Loss of compound (in words) ([3]; milder conditions (pH 5, 45° C.)): significant loss
